Experimental data published in patent EP3095787A1, “[…] ACTIVE COMPOUNDS AS DAG-LIPASE INHIBITORS” (Universiteit Leiden, priority 2015, dated 2016).

Tests used:
hDAGL-α = target: T1, hDAGL-α (Homo sapiens, UniProt Q9Y4D2); assay: Biochemical hDAGL-α activity assay (PNP-butyrate hydrolysis, 96 well plate); design: expressed in transfected cells; host or cells: HEK293T (transient), membrane fraction; conditions: PNP-butyrate 0.3 mM, membranes of HEK293T cells transfected with hDAGL-α
T1 sequence (Q9Y4D2 1-1042): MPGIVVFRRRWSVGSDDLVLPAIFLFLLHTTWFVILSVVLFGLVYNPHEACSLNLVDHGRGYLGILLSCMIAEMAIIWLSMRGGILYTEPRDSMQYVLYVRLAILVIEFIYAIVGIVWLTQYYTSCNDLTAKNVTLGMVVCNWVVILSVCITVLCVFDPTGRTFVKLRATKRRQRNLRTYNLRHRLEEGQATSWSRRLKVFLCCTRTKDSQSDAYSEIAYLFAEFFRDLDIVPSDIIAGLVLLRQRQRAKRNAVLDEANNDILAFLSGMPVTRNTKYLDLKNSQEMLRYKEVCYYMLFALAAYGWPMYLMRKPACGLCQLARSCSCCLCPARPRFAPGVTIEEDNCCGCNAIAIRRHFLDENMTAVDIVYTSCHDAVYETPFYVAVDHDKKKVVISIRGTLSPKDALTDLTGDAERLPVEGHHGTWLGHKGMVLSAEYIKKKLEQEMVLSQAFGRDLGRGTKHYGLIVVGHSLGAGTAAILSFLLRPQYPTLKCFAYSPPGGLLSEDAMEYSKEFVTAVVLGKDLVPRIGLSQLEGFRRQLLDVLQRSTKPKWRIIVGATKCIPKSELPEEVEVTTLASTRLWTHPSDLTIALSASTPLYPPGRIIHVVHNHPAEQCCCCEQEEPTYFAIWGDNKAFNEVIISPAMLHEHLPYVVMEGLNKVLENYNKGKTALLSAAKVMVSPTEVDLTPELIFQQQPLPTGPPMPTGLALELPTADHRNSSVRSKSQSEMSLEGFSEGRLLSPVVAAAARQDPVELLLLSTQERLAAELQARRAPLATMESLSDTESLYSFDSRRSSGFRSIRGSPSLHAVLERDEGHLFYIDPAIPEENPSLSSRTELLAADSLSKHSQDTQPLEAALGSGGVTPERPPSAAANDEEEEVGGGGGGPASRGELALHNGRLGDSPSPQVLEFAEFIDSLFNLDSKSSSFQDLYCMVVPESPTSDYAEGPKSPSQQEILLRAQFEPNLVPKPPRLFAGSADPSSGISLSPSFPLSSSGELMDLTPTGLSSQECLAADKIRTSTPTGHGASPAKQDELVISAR
Experimental: The biochemical hDAGL-α activity assay is based on the hydrolysis of para-nitrophenylbutyrate (PNP-butyrate) by membrane preparations from HEK293T cells transiently transfected with hDAGL-α. 200 µL reactions were performed in flat bottom Greiner 96-wells plates in a 50 mM pH 7.2 Hepes buffer. Membrane protein fractions from HEK293T cells transiently transfected with hDAGL-α (0.05 µg/µL final concentration) were used as hDAGL-α source. Compounds to be tested were introduced in 5 µL DMSO. The mixtures were incubated for 30 minutes before 5.0 µL 12 mM PNP-butyrate (final concentration 0.3 mM) in DMSO was added (final DMSO concentration 5.0%). Kinetics were followed immediately after addition of PNP-butyrate on a plate reader (TECAN GENios® microplate reader), by measuring the OD420 every 60 seconds, for 20 minutes at 37°C. The slope of the linear region from 5-15 minutes was determined, and all experiments were performed at N = 2, n = 2 for experimental measurements and N = 2, n = 4 for controls.
Data analysis: Z'-factor of each plate was determined for the validation of each experiment, using the following formula Z' = 1-3(σpc + σnc)/(µpc - µnc). The slope from 5-15 minutes of the positive control (pc: hDAGL-α, DMSO), and the negative control (nc: Mock, DMSO) was used. Plates were accepted for further analysis when Z' > 0.6. Kinetic measurements were corrected for the average absorption of the negative control (mock, DMSO). The slope of the linear region from 5-15 minutes was determined. The average, standard deviation (SD) and standard error of mean (SEM) were calculated and normalized to the corrected positive control. Data was exported to Graphpad Prism 5.0 for the calculation of the pIC50 using a nonlinear dose-response analysis.

FAAH = target: T2, FAAH (Mus musculus, UniProt O08914); assay: Gel based competitive ABPP selectivity assay with TAMRA-FP in mouse brain proteome (FAAH band); type: biochemical; conditions: for FAAH ABPP (10 µm) % Eff.: 10 µM inhibitor, TAMRA-FP 500 nM, mouse brain proteome, vehicle set to 100%
T2 construct: For gel based ABPP experiments mouse brain proteome (2.0 mg/mL, 20 µL) was preincubated; from tissue; host or cells: mouse brain proteome
T2 sequence (O08914 1-579): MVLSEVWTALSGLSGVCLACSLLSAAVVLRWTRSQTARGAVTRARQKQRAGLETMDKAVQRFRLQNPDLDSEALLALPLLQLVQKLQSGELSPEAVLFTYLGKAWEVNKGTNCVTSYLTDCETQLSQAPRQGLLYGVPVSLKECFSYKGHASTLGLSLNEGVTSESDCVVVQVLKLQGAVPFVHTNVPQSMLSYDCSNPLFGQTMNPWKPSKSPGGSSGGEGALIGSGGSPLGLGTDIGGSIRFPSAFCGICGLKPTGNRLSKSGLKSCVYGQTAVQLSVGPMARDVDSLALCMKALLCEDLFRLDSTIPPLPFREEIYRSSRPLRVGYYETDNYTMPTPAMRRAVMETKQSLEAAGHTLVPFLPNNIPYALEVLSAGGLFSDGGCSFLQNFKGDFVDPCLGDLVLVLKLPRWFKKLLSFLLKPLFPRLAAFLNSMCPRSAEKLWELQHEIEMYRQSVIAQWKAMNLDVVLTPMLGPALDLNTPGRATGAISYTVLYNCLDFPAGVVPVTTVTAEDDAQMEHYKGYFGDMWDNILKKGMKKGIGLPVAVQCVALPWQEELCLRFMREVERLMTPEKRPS
Experimental: For gel based ABPP experiments mouse brain proteome (2.0 mg/mL, 20 µL) was preincubated for 30 min with vehicle (DMSO) or compound to be tested in 0.5 µL DMSO at rt. And subsequently treated with 500 nM (final concentration) TAMRA-FP (TAMRA-FP was bought at Thermo Fischer) for 15 minutes at rt. The reactions were quenched with 10 µL standard 3 x SDS page sample buffer. The samples were directly loaded and resolved on SDS page gel (10 % acrylamide). The gels were scanned with a ChemiDoc MP sytem (Biorad, Cy 3 settings, 605/50 filter) and analyzed using Image Lab 4.1.
The percentage effect on FAAH was determined by measuring the integrated optical intensity of the band corresponding to FAAH (∼ 63 kD for mouse) using Image lab software. This activity was corrected for the total protein loading per lane as determined by coomassie staining and imaging with a ChemiDoc™ MP sytem (Biorad) followed by determination of the integrated optical intensity per lane by using Image Lab 4.1 software. The intensity of the protein bands from the samples treated with vehicle was set to 100%. […] N/A means less than 50% probe displacement at 10 µM inhibitor concentration.

SMILES | DAGL-α Activity assay pIC50 (hDAGL-α) | FAAH ABPP (10 µm) % Eff. (FAAH) | IC50 (hDAGL-α; read-out: DAGL-α Activity assay pIC50 (converted)) | FAAH labeling (FAAH; up to a concentration of 10 µM, n=3)
O=C(CCCCCc1ccccc1)c1nc2ncccc2o1 [Compound 1, 1-(Oxazolo[4,5-b]pyridin-2-yl)-6-phenylhexan-1-one, reference compound] | 7.43 | 99% |  | 
Cc1ccc(-c2cnc3nc(C(=O)CCCCCc4ccccc4)oc3c2)cc1 [Compound 25, 1-(6-(p-Tolyl)oxazolo[4,5-b]pyridin-2-yl)-6-phenylhexan-1-one] |  | N/A (N/A means less than 50% probe displacement at 10 µM inhibitor concentration) | 3.02 nM | did not block FAAH labeling
